Source: ChEMBL document CHEMBL3351666, “Nocatriones A and B, photoprotective tetracenediones from a marine-derived Nocardiopsis sp” (J Nat Prod, 2014)

Columns and labels:
[1] = Reduction in UVB radiation-induced MMP1 secretion in human MCTT MC1233 cells at 10 uM exposed to 144 mJ/cm2 UVB irradiation by ELISA method; type: functional; details: MCTT MC1233, light or radiation study
[2] = Cytotoxicity against human MCTT MC1233 cells assessed as reduction in cell viability at 1 to 10 uM incubated for 72 hrs by MTT assay; type: cell-based; details: mctt mc1233, 72 h
[3] = Cytotoxicity against human ScienCell 2320 cells assessed as reduction in cell viability at 1 to 10 uM incubated for 72 hrs by MTT assay; type: cell-based; details: sciencell 2320, 72 h
[4] = Reduction in UVB radiation-induced MMP1 secretion in human ScienCell 2320 cells at 10 uM exposed to 144 mJ/cm2 UVB irradiation by ELISA method; type: functional; details: ScienCell 2320, light or radiation study
[5] = test system: MCTT MC1233; experiment: Reduction in UVB radiation-induced MMP1 secretion in human MCTT MC1233 cells exposed to 144 mJ/cm2 UVB irradiation by ELISA method; type: functional, cell-based
[6] = Cytotoxicity against human MCTT MC1233 cells exposed to 144 mJ/cm2 UVB irradiation assessed as reduction in cell viability at 1 to 10 uM incubated for 72 hrs by MTT assay; type: cell-based; details: mctt mc1233, 72 h
[7] = Reduction in MMP1 secretion in human ScienCell 2320 cells at 10 uM by ELISA method; type: functional
[8] = Cytotoxicity against human ScienCell 2320 cells exposed to 144 mJ/cm2 UVB irradiation assessed as reduction in cell viability at 1 to 10 uM incubated for 72 hrs by MTT assay; type: cell-based; details: sciencell 2320, 72 h
[9] = Reduction in MMP1 secretion in human MCTT MC1233 cells at 5 uM by ELISA method; type: functional
[10] = Reduction in MMP1 secretion in human MCTT MC1233 cells at 10 uM by ELISA method; type: functional

Compound | inhibition at 10 µM [1] [%] | Activity [2] | Activity [3] | inhibition at 10 µM [4] [%] | inhibition [5] | Activity [6] | inhibition at 10 µM [7] [%] | Activity [8] | inhibition at 5 µM [9] [%] | inhibition at 10 µM [10] [%]
Cc1c(-c2cc(O)cc(=O)o2)c(O)cc2cc3c(c(O)c12)C(=O)c1c(O)cc(O)cc1C3=O | 18 | Non-toxic | Non-toxic | 91 | Dose-dependent effect | Non-toxic | 93 | Non-toxic | – | –
Cc1c2c(cc(O)c1-c1cc(O)cc(=O)o1)C(=O)c1cc3cc(O)cc(O)c3c(O)c1C2=O | 65 | Non-toxic | Non-toxic | 99 | Dose-dependent effect | Non-toxic | 99 | Non-toxic | 58 | 83
